Test results published in PubChem BioAssay (NCI).
Where “and” joins values, the source holds several entries; their conditions need not be identical. Identical values can stand only once.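 Growth conditions: 96-well plates. Treatment: test compound, 48 hours, 5 concentrations. Analysis: linear interpolation between bracketing concentrations; unreached endpoints set to highest concentration. Abbreviation: GI50, concentration required for 50% inhibition of growth. TGI denotes the concentration required for complete inhibition of growth.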

What was measured:
Test in all cases: NCI tumour cell line growth inhibition, 48 h
[1] = tested on: NCI-H23 lung
[2] = tested on: HL-60(TB) leukemia
[3] = tested on: EKVX NSCLC
[4] = tested on: OVCAR-4 ovarian
[5] = tested on: 786-0 renal
[6] = tested on: CAKI-1 renal
[7] = tested on: MDA-MB-231 breast
[8] = tested on: HOP-62 NSCLC
[9] = tested on: HCT-116 colon
[10] = tested on: KM12 colon

SMILES | GI50 [1] [µM] | TGI [1] [µM] | GI50 [2] [µM] | TGI [2] | GI50 [3] [µM] | TGI [3] [µM] | GI50 [4] [µM] | TGI [4] [µM] | GI50 [5] [µM] | TGI [5] [µM] | GI50 [6] [µM] | TGI [6] [µM] | GI50 [7] [µM] | TGI [7] | GI50 [8] [µM] | TGI [8] [µM] | GI50 [9] [µM] | TGI [9] [µM] | GI50 [10] [µM] | TGI [10]
O=C(Nc1ccc(-n2cc(-c3ccncc3)c(-c3ccc(Cl)c(O)c3)n2)cc1)c1cc(C(F)(F)F)cc(C(F)(F)F)c1 | 6.09 | 29.5 | > 100 | > 100 µM | 22 | > 100 | 11.2 | 54.6 | 3.78 | 13.6 | 7.48 | 42.9 | 3.29 | 21.6 µM | 2.11 | 5.58 | 4.72 | 17.5 | 4.01 | 16.2 µM
CC(=O)C1(C(=O)C(=[N+]=[N-])S(=O)(=O)c2ccccc2)CC1 | – | > 100 | – | > 100 µM | – | > 100 | – | – | – | > 100 | – | – | – | > 100 µM | – | > 100 | – | > 100 | – | > 100 µM
O=C1Nc2ccc(-c3cccnc3)cc2/C1=C/c1cc(Br)c(O)c(Br)c1 | 6.86 | > 21.9 | 6.97 | > 22.1 µM | 10.2 | > 25 | 14.8 | > 25 | 7.18 | > 25 | 4.83 | > 23.7 | 7.41 | > 25 µM | 8.43 | > 25 | 6.54 | > 25 | 6.59 | 24.8 µM
Cc1cc(OC2OC(CO)C(O)C(O)C2O)ccc1O (stereo unspecified) | – | > 100 | – | > 100 µM | – | > 100 | – | > 100 | – | > 100 | – | > 100 | – | > 100 µM | – | > 100 | – | > 100 | – | > 100 µM
C/C(=C/CCC(C)[C@@H]1CC[C@]2(C)C3=C(CC[C@@]12C)[C@@]1(C)CCC(=O)C(C)(C)[C@@H]1CC3)C(=O)O (stereo partly specified) | 0.885 | 2.37 | 0.855 | 2.32 µM | 0.705 | 2.19 | 1.27 | 3.02 | 1.18 | 2.57 | 0.753 | 2.14 | 1.53 | 3.15 µM | 1.99 | 3.57 | 0.858 | 2.3 | 0.747 | 2.3 µM
Nc1nc(-c2ccccc2)c(CC(=O)O)s1 | – | – | – | 83.1 µM | – | > 100 | – | > 100 | – | > 100 | – | > 100 | – | > 100 µM | – | > 100 | – | > 100 | – | > 100 µM
Nc1nc(Cl)c2ncn(Cc3ccc(C45CC6CC(CC(C6)C4)C5)c(OCc4cc(F)c(F)cc4F)c3)c2n1 | – | – | 1.06 | 2.85 µM | 10.8 | 67.1 | 6.08 | > 100 | 1.85 | 4.93 | 2.37 | 5.48 | 2.58 | 9.81 µM | 3.23 | 10.8 | 1.03 | 2.2 | 2.93 | 9.13 µM
O=C(CCCCN1CCN(CCCCC(=O)Nc2ccccc2C#C/C=C\C#Cc2ccccc2C(F)(F)F)CC1)Nc1ccccc1C#C/C=C\C#Cc1ccccc1C(F)(F)F | 13.8 | 38.9 | 11.9 | 24.6 µM | 18 | > 50 | 16.2 | 49.5 | 9.8 | 18.3 | > 50 | > 50 | 6.23 | 16 µM | 12.2 | 32 | 9.18 | 17.8 | 13.2 | 33 µM
O=[N+]([O-])/C=C/c1ccc2ccccc2c1 | – | > 23.5 | – | 7.8 µM | – | > 55 | – | 26 | – | > 20.4 | – | 25.7 | – | 13.4 µM | – | > 51.5 | – | – | – | 3.09 µM
Nc1c(C(=O)Nc2ccccc2)sc2nc3c(cc12)C(=O)CCC3 | 0.833 | > 100 | 0.587 | > 100 µM | 0.627 | > 100 | 0.81 | > 100 | 1.27 | > 100 | 0.485 | > 100 | 2.32 | > 100 µM | 0.745 | > 100 | 0.512 | > 100 | 0.323 | > 100 µM
COc1cccc(-c2cc(=O)c3cc(N4CCN(C)CC4)ccc3[nH]2)c1 | 3.45 | – | 0.41 | 3.04 µM and 1.23 µM | 2.96 | – | 10.6 | > 100 | 5.28 | > 100 | 0.722 | > 100 | 2.24 | 9.89 µM and 7.13 µM | 10.7 | > 100 | 0.92 | > 100 | 1.35 | 4.81 µM and 45.4 µM
N=C(N)n1cc(/C=N/N=C(N)N)cn1 | – | > 100 | – | > 100 µM | – | > 100 | – | > 100 | – | > 100 | – | > 100 | – | > 100 µM | – | > 100 | – | > 100 | – | > 100 µM
O=C(O)c1ccccc1NCn1nc(-c2ccccc2O)oc1=S | 40.1 | > 100 | 64.9 | > 100 µM | > 100 | > 100 | – | – | 35.4 | > 100 | > 100 | > 100 | 16.8 | 47.8 µM | 39 | > 100 | 26 | 54.1 | > 100 | > 100 µM
OCCNc1nc2ccccc2c2[nH]c3ccccc3c12 | 0.496 | 1.88 | 0.349 | 1.95 µM | 2.14 | 15.5 | 1.06 | 4.59 | 0.407 | 1.92 | 0.529 | 8.9 | 0.611 | 3.63 µM | 0.583 | 6.66 | 0.278 | 1.68 | 0.483 | 4.63 µM
NC(=O)c1nc(-c2c(F)cccc2Cl)oc1Nc1ccc(C(=O)N2CCOCC2)cc1 | 2.91 | > 100 | 0.478 | 31.7 µM | 12.2 | > 100 | 28.4 | > 100 | 2.18 | > 100 | 1.44 | > 100 | 1.86 | > 100 µM | 2.08 | > 100 | 1.36 | 20 | 0.326 | > 100 µM
CC(=O)Nc1cccc(C#Cc2cncnc2Nc2ccc(OCc3cccc(F)c3)c(Cl)c2)c1 | 10.6 | > 25 | 7.59 | > 25 µM | 2.01 | > 21.5 | 7.6 | > 25 | 7.66 | > 25 | 3.3 | > 25 | 15.6 | > 25 µM | > 19.8 | > 25 | 9.1 | > 25 | 9.64 | > 25 µM
COc1ccc(N(CC(=O)O)N=O)cc1 | – | > 100 | – | > 100 µM | – | > 100 | – | > 100 | – | > 100 | – | > 100 | – | > 100 µM | – | > 100 | – | > 100 | – | > 100 µM
CN(C)CCNC(=O)Nc1ccc(N(C)c2ccnc(Nc3ccc(CS(C)(=O)=O)cc3)n2)cc1 | > 25 | > 25 | > 25 | > 25 µM | > 25 | > 25 | > 25 | > 25 | > 25 | > 25 | > 25 | > 25 | > 25 | > 25 µM | > 25 | > 25 | > 25 | > 25 | 9.88 | > 25 µM
C#COc1cccc(Nc2ncnc3cc(NC(=O)[C@@H](C)Cl)ccc23)c1 | 17.2 | > 62.5 | 2.02 | 8.25 µM | 28.7 | > 62.5 | – | – | 19.3 | > 62.5 | 10.2 | > 62.5 | 17.2 | > 62.5 µM | 8.18 | > 62.5 | 2.98 | > 62.5 | 3.25 | > 62.5 µM
Cn1cc(-c2ccc3ncc(-c4ccc(CC(=O)Nc5cc(C(C)(C)C)nn5C)cc4)cc3c2)cn1 | 1.1 | > 20 | 1.2 | 8.28 µM | 1.88 | > 20 | 0.687 | 5.03 | 1.28 | > 20 | 0.541 | 7.15 | 2.37 | > 20 µM | 3.96 | > 20 | 0.887 | > 20 | 0.151 | 3 µM
S=C(Sc1ccc(Cl)cc1)Sc1ccc(Cl)cc1 | 1.75 | 3.78 | 1.93 | 8.62 µM | 3.03 | 13.6 | 3.03 | 10.9 | 1.94 | 3.6 | 2.96 | 10.3 | 2.19 | 4.36 µM | 3.39 | 7.58 | 1.82 | 3.53 | 2.74 | 8.64 µM
CCCC(O)[C@@]1(CC)CC(C)C(O)(C2(C)C[C@H](C)[C@@H](C(CC)C(=O)C(C)[C@@H](O)[C@H](C)C3OC(O)(C(CC)C(=O)O)[C@@H](C)C(O)C3CC)O2)O1 (stereo partly specified) | – | 2.28 | – | 0.233 µM | – | 4.21 | – | 6.94 | – | 5.07 | – | 5.05 | – | 2.11 µM | – | 2.3 | – | 1.6 | – | 2.06 µM
CCc1ccc(Oc2c(-c3ccc(OCc4ccc(Cl)cc4)cc3O)nn(C)c2C(F)(F)F)cc1 | 0.376 | 1.74 | 1.42 | 3.62 µM | 1.03 | 2.98 | 0.547 | 2.33 | 1.22 | 2.87 | 2.09 | 7.25 | 1.19 | 2.85 µM | 1.34 | 2.83 | 0.259 | 1.1 | 0.389 | 1.61 µM
COc1cc2c(c3c1c(=O)c1ccccc1n3C)C=C([N+](=O)[O-])C(C)(C)O2 | – | > 100 | – | > 100 µM | – | > 100 | – | > 100 | – | > 100 | – | > 100 | – | > 31.6 µM | – | > 100 | – | > 100 | – | > 100 µM
COC(=O)[C@]12CC[C@@H](C)[C@H](C)[C@@H]1C1=CC[C@@H]3[C@@]4(C)C(C=O)=C[C@@](C)(COS(C)(=O)=O)C4=CC[C@@]3(C)[C@]1(C)CC2 | 0.303 | 1.34 | 0.276 | 0.835 µM | 0.315 | 1.34 | – | – | 0.189 | 0.415 | – | – | 0.232 | 0.578 µM | 0.303 | 1.17 | 0.16 | 0.321 | – | –
CCOC(=O)c1cc(C(=O)c2ccc(OC)c(OC)c2)n2c1ccc1ccc3cccnc3c12 | 4 | > 100 | 2.78 | > 100 µM | 4.14 | > 100 | 5.17 | > 100 | 2.34 | > 100 | – | – | 2.66 | > 100 µM | 3.78 | 81.6 | 0.619 | > 100 | 1.3 | 80.7 µM
O=C1c2cccc3c(N4CCOCC4)ccc(c23)C(=O)N1CCN1CCN(CCCCCN2CCN(CCN3C(=O)c4cccc5c(N6CCOCC6)ccc(c45)C3=O)CC2)CC1 | 99.8 | > 100 | 33.7 | > 100 µM | > 100 | > 100 | > 100 | > 100 | 55.8 | > 100 | > 100 | > 100 | > 100 | > 100 µM | 52.3 | > 100 | 33.8 | > 100 | – | –
CCN(CC)CCCC(Nc1c2ccc(Cl)cc2nc2ccc(OC)cc12)c1ccc(Cl)cc1 (stereo unspecified) | 1.43 | 2.98 | 1.48 | 3.23 µM | 1.35 | 2.96 | 1.13 | 3.17 | 1.29 | 2.91 | 1.17 | 2.44 | 0.67 | 2.24 µM | 1.61 | 3.14 | – | – | 1.52 | 2.99 µM
